Experimental findings from ChEMBL document CHEMBL5321279 (J Med Chem, 2023) are described below.

A short description of data set [1]: Prodrug conversion in SARS-CoV-2 infected in African green monkey assessed as (2R,3R,4S,5R)-2-(4-aminopyrrolo[2,1-f][1,2,4]triazin-7-yl)-3,4-dihydroxy-5-(hydroxymethyl)tetrahydrofuran-2-carbonitrile mediated log10 reduction of genomic RNA at 10 mg/kg, iv qd administered for day 1 followed by 5 mg/kg administration measured after 6 days by RT-qPCR analysis. Format: ADME, organism-based, Severe acute respiratory syndrome coronavirus 2. The conditions noted are these: in vivo, time 6 day.

For data set [2], the system named is SARS-CoV-2. Briefly: Antiviral activity against SARS-CoV-2 Omicron BA.2 infected in human A549-hACE2-TMPRSS2 cells assessed as fold reduction in viral replication pre-incubated with compound followed by viral infection measured after 72 hrs by ELISA assay relative to SARS-CoV-2 WA1. Format: functional, Severe acute respiratory syndrome coronavirus 2.
The subject of data set [3] is SARS-CoV-2. Briefly: Antiviral activity against SARS-CoV-2 Omicron BA.4.6 infected in human A549-hACE2-TMPRSS2 cells assessed as fold reduction in viral replication pre-incubated with compound followed by viral infection measured after 72 hrs by ELISA assay relative to SARS-CoV-2 WA1. Format: functional, Severe acute respiratory syndrome coronavirus 2.
Data set [4] concerns SARS-CoV-2. Briefly: Antiviral activity against SARS-CoV-2 Omicron BA.2.12.1 infected in human A549-hACE2-TMPRSS2 cells assessed as fold reduction in viral replication pre-incubated with compound followed by viral infection measured after 72 hrs by ELISA assay relative to SARS-CoV-2 WA1. Format: functional, Severe acute respiratory syndrome coronavirus 2.
Data set [5] in a line: Cytotoxicity against human NHBE-T cells assessed as reduction in cell growth measured after 5 days by CellTiter-Glo assay. Format: toxicity, cell-based. The conditions noted are these: NHBE-T cells, time 5 day.
In data set [6] the test system is SARS-CoV-2. Briefly: Antiviral activity against SARS-CoV-2 Omicron BA.2.75 infected in human A549-hACE2-TMPRSS2 cells assessed as fold reduction in viral replication pre-incubated with compound followed by viral infection measured after 72 hrs by ELISA assay relative to SARS-CoV-2 WA1. Format: functional, Severe acute respiratory syndrome coronavirus 2.
Data set [7] relates to SARS-CoV-2. Briefly: Antiviral activity against SARS-CoV-2 Omicron BA.1 infected in human A549-hACE2-TMPRSS2 cells assessed as fold reduction in viral replication pre-incubated with compound followed by viral infection measured after 72 hrs by ELISA assay relative to SARS-CoV-2 WA1. Format: functional, Severe acute respiratory syndrome coronavirus 2.
In data set [8] the test system is SARS-CoV-2. Briefly: Antiviral activity against SARS-CoV-2 Omicron BA.5 infected in human A549-hACE2-TMPRSS2 cells assessed as fold reduction in viral replication pre-incubated with compound followed by viral infection measured after 72 hrs by ELISA assay relative to SARS-CoV-2 WA1. Format: functional, Severe acute respiratory syndrome coronavirus 2.
For data set [9], the system named is SARS-CoV-2. Briefly: Antiviral activity against SARS-CoV-2 Omicron XBB infected in human A549-hACE2-TMPRSS2 cells assessed as fold reduction in viral replication pre-incubated with compound followed by viral infection measured after 72 hrs by ELISA assay relative to SARS-CoV-2 WA1. Format: functional, Severe acute respiratory syndrome coronavirus 2.
The target in data set [10] is T1, Adenosine deaminase (Homo sapiens) (UniProt P00813).
T1 sequence (whole entry): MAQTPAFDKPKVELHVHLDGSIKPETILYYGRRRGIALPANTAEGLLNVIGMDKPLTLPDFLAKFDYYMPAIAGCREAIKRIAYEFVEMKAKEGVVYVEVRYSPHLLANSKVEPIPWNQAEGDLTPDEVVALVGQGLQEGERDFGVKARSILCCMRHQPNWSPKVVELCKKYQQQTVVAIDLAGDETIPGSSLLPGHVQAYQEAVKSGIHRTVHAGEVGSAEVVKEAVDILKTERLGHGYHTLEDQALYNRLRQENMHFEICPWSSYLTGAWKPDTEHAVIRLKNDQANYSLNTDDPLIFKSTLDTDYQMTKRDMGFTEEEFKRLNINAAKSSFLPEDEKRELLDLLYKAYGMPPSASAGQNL
Briefly: Inhibition of human recombinant ADA1-mediated drug metabolism at 100 uM incubated for 58 mins by absorbance based analysis.

A short description of data set [11]: Stability of compound in dog gastrointestinal S9 fraction assessed as half life at pH 7.4 measured upto 120 mins by LC-MS/MS analysis. Format: ADME, subcellular, Canis lupus familiaris, Gastrointestinal tract.
Data set [12] in a line: Aqueous stability of the compound assessed as compound remaining at pH 7 measured at 24 hrs by UPLC analysis. Format: physicochemical. Conditions: aqueous solution, read-out: Stability.
The subject of data set [13] is SARS-CoV-2. Kind of data set: Antiviral activity against SARS-CoV-2 infected in African green monkey assessed as reduction in viral genomic RNA load in throat swabs at 60 to 120 mg/kg, po qd administered for 1 day starting from 8 hrs post infection by RT-qPCR analysis. Format: functional, organism-based. Conditions: Severe acute respiratory syndrome coronavirus 2, dose lower 60.0 mg/kg, dose upper […].

For data set [14], the system named is CES1c. Briefly: Stability of compound assessed as human recombinant CES1c-mediated compound hydrolysis by measuring half life at pH 7.4 using oseltamivir as substrate measured upto 120 mins by LC-MS/MS analysis. Format: ADME. Conditions: pH 7.4, probe oseltamivir.
Data set [15] is described as follows: Lipophilicity, logD of compound. Format: physicochemical. The conditions noted are these: octanol/water.
For data set [16], the system named is SARS-CoV-2. Kind of data set: Antiviral activity against SARS-CoV-2 infected in African green monkey assessed as reduction in viral load in BALF at 120 mg/kg, po qd administered for 6 days starting from 8 hrs post infection by PFA assay. Format: functional, organism-based. Conditions: Severe acute respiratory syndrome coronavirus 2, time 6.0 day.
The subject of data set [17] is CES1b. Kind of data set: Stability of compound assessed as human recombinant CES1b-mediated compound hydrolysis by measuring half life at pH 7.4 using oseltamivir as substrate measured upto 120 mins by LC-MS/MS analysis. Format: ADME. Conditions: pH 7.4, probe oseltamivir.
Data set [18] in a line: Oral bioavailability in cynomolgus monkey assessed as prodrug conversion by measuring (2R,3R,4S,5R)-2-(4-aminopyrrolo[2,1-f][1,2,4]triazin-7-yl)-3,4-dihydroxy-5-(hydroxymethyl)tetrahydrofuran-2-carbonitrile at 11.7 mg/kg administered in solid form measured upto 24 hrs by LC-MS/MS analysis. Format: ADME, organism-based, Macaca fascicularis. Conditions: in vivo.
Data set [19] in a line: AUC(0 to 24 hrs) in cynomolgus monkey assessed as prodrug conversion by measuring (2R,3R,4S,5R)-2-(4-aminopyrrolo[2,1-f][1,2,4]triazin-7-yl)-3,4-dihydroxy-5-(hydroxymethyl)tetrahydrofuran-2-carbonitrile at 11.7 mg/kg, po measured upto 24 hrs by LC-MS/MS analysis. Format: ADME, organism-based, Macaca fascicularis. On the set-up: dose 11.7 mg/kg, time < 24 hrs, route po. The conditions noted are these: in vivo.

For data set [20], the system named is PC-3. Briefly: Inhibition of mitochondrial protein synthesis in human PC-3 cells at 100 uM incubated for 5 days. Format: functional, cell-based. Conditions: time 5.0 day.
Data set [21] in a line: Stability of compound in human plasma assessed as half life measured upto 4 hrs by LC-MS/MS analysis. Format: ADME, cell-free.
Data set [22] is described as follows: Drug metabolism in human NHBE-T cells assessed as fold increase in Nucleotide triphosphate metabolite formation at 10 uM measured after 48 hrs by LC-MS analysis. Format: ADME, cell-based.
The nature of data set [23]: Drug metabolism in human A549-ACE2 cells assessed as Nucleotide triphosphate metabolite formation at 10 uM measured after 48 hrs by LC-MS analysis. Format: ADME, cell-based. Conditions: a549-ace2, 48 h.
Data set [24] relates to PC-3. Briefly: Inhibition of mitochondrial respiration in human PC-3 cells at 100 uM incubated for 3 days. Format: functional, cell-based. Conditions: time 3.0 day.
Data set [25] can be described thus: in vivo. The conditions noted are these: dog, po, 5 mg/kg.

Calls of active or inactive are those of the source. The calls are words filed in the database; no cut-off is given here.

Turning to `CCC(CC)COC(=O)[C@H](C)N[P@](=O)(OC[C@H]1O[C@@](C#N)(c2ccc3c(N)ncnn23)[C@H](O)[C@@H]1O)Oc1ccccc1`, the “log(activity)” value in [1] is listed as -1.38. Besides, the “fold change (FC)” value in data set [2] stood at 0.23; in [3], 0.64; in data set [4], 0.2; in data set [6], 0.3; in data set [7] it was 0.45; in data set [8] it was 0.66. Further, in data set [9], the “fold change (FC)” value was determined as 1.07. The CC50 at 120 h in data set [5] was above 50 µM.

Take `CC(C)C(=O)OC[C@H]1O[C@@](C#N)(c2ccc3c(N)ncnn23)[C@H](O)[C@@H]1O` [OBELDESIVIR]: the inhibition result in [10] was “Active”. Moreover, the “fold change (FC)” value in data set [2] was 0.37; in data set [3], 0.62; in data set [4] it was 0.29; in [6], 0.35; in data set [7], 0.32; in data set [8], 0.83. The “fold change (FC)” value in data set [9] is on record as 1.1. In addition, the half-life is below 2 min in data set [11], 4.3 min in data set [14], 4 min in data set [17] and 29 min in [21]. In [12], the remaining at 24 h is at least 96%. Also, the outcome in [13] and in data set [16] was Active. Further, the CC50 at 120 h in data set [5] was above 50 µM. For the same compound, the logD in data set [15] (read-out: logD) was below 0.9. In [18], the F is recorded as 18%. Besides, the AUC in data set [19] came out at 21.6 µM·h. The inhibition entry in [20] and in data set [24] was “inactive” throughout. Also, the Drug metabolism entry in data set [22] and in data set [23] was “Metabolite_Detected” in each case.

Turning to `N#C[C@@]1(c2ccc3c(N)ncnn23)O[C@H](CO)[C@@H](O)[C@H]1O` [GS-441524], the inhibition result in data set [10] was “Active”. Moreover, in [15], the logD is below 0.3. This compound also displayed a bioavailability at 24 h in data set [25] of 89%. For the same compound, the inhibition result in [20] and in [24] was “inactive” throughout. For the same compound, the Drug metabolism result in data set [22] and in data set [23] was “Metabolite_Detected” throughout. For the same compound, in data set [22], the “fold change (FC)” value is reported as above 3.
